Experimental data published in ChEMBL document CHEMBL4507320, “Data for DCP probe NVS-MALT1” (2021).

Columns and labels:
[1] = system: Tyrosine-protein kinase ABL1 (Homo sapiens), P00519 [F317I]; settings: Compound concentration 1000.0 nM
[2] = system: Tyrosine-protein kinase ABL1 (Homo sapiens), P00519 [F317L]; settings: Compound concentration 1000.0 nM
[3] = molecular target: Tyrosine-protein kinase Blk (Homo sapiens) (UniProt P51451); settings: Compound concentration 1000.0 nM
[4] = molecular target: Tyrosine-protein kinase BTK (Homo sapiens) (UniProt Q06187); settings: Compound concentration 1000.0 nM
[5] = molecular target: Casein kinase I isoform gamma-1 (Homo sapiens) (UniProt Q9HCP0); settings: Compound concentration 1000.0 nM
[6] = molecular target: Death-associated protein kinase 2 (Homo sapiens) (UniProt Q9UIK4); settings: Compound concentration 1000.0 nM
[7] = molecular target: Epithelial discoidin domain-containing receptor 1 (Homo sapiens) (UniProt Q08345); settings: Compound concentration 1000.0 nM
[8] = system: Epidermal growth factor receptor (Homo sapiens), P00533 [UNDEFINED MUTATION]; settings: Compound concentration 1000.0 nM
[9] = system: Epidermal growth factor receptor (Homo sapiens), P00533 [L858R,T790M]; settings: Compound concentration 1000.0 nM
[10] = molecular target: Receptor tyrosine-protein kinase erbB-2 (Homo sapiens) (UniProt P04626); settings: Compound concentration 1000.0 nM
[11] = molecular target: Tyrosine-protein kinase Fer (Homo sapiens) (UniProt P16591); settings: Compound concentration 1000.0 nM
[12] = system: Fibroblast growth factor receptor 3 (Homo sapiens), P22607 [G697C]; settings: Compound concentration 1000.0 nM
[13] = system: Receptor-type tyrosine-protein kinase FLT3 (Homo sapiens), P36888 [UNDEFINED MUTATION]; settings: Compound concentration 1000.0 nM
Receptor-type tyrosine-protein kinase FLT3 (Homo sapiens), P36888 [UNDEFINED MUTATION], sequence (P36888 whole entry, looked up, change not shown): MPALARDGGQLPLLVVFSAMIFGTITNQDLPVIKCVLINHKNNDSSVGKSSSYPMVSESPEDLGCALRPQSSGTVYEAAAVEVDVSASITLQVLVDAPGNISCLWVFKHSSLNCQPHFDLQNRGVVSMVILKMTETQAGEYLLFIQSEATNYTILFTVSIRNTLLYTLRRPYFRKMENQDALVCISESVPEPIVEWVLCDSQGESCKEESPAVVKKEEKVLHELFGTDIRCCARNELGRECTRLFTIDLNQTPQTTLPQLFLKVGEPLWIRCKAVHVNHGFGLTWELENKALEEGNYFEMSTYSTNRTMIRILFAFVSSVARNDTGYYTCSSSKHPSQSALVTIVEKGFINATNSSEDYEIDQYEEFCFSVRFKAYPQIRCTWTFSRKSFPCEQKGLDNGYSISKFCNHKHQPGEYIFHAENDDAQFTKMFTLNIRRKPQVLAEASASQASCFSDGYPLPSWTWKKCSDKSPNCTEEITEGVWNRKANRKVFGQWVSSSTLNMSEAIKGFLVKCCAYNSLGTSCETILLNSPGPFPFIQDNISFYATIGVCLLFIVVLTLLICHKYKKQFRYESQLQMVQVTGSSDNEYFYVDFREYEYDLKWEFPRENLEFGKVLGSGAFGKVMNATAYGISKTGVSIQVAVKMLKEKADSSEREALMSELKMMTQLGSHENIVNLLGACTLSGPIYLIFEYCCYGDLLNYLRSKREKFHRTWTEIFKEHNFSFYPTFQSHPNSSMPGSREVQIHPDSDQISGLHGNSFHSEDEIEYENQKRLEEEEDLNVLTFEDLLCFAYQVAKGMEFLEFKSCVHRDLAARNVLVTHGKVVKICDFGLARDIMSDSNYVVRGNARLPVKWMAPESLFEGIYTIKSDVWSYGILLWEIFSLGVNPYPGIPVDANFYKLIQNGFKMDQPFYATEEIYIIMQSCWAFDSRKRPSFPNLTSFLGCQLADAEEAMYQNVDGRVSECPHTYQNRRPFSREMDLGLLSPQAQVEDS

[14] = system: Receptor-type tyrosine-protein kinase FLT3 (Homo sapiens), P36888 [UNDEFINED MUTATION]; settings: Compound concentration 1000.0 nM; remark: listed apart in the source
[15] = molecular target: Receptor-type tyrosine-protein kinase FLT3 (Homo sapiens, UniProt P36888); settings: Compound concentration 1000.0 nM
Receptor-type tyrosine-protein kinase FLT3, sequence (P36888 whole entry): as the sequence (P36888 whole entry, looked up, change not shown) above

[16] = molecular target: Serine/threonine-protein kinase haspin (Homo sapiens) (UniProt Q8TF76); settings: Compound concentration 1000.0 nM
[17] = molecular target: Insulin receptor (Homo sapiens) (UniProt P06213); settings: Compound concentration 1000.0 nM
[18] = molecular target: Serine/threonine-protein kinase LATS2 (Homo sapiens) (UniProt Q9NRM7); settings: Compound concentration 1000.0 nM
[19] = system: Leucine-rich repeat serine/threonine-protein kinase 2 (Homo sapiens), Q5S007 [G2019S]; settings: Compound concentration 1000.0 nM
Leucine-rich repeat serine/threonine-protein kinase 2 (Homo sapiens), Q5S007 [G2019S], sequence (Q5S007 whole entry G2019S): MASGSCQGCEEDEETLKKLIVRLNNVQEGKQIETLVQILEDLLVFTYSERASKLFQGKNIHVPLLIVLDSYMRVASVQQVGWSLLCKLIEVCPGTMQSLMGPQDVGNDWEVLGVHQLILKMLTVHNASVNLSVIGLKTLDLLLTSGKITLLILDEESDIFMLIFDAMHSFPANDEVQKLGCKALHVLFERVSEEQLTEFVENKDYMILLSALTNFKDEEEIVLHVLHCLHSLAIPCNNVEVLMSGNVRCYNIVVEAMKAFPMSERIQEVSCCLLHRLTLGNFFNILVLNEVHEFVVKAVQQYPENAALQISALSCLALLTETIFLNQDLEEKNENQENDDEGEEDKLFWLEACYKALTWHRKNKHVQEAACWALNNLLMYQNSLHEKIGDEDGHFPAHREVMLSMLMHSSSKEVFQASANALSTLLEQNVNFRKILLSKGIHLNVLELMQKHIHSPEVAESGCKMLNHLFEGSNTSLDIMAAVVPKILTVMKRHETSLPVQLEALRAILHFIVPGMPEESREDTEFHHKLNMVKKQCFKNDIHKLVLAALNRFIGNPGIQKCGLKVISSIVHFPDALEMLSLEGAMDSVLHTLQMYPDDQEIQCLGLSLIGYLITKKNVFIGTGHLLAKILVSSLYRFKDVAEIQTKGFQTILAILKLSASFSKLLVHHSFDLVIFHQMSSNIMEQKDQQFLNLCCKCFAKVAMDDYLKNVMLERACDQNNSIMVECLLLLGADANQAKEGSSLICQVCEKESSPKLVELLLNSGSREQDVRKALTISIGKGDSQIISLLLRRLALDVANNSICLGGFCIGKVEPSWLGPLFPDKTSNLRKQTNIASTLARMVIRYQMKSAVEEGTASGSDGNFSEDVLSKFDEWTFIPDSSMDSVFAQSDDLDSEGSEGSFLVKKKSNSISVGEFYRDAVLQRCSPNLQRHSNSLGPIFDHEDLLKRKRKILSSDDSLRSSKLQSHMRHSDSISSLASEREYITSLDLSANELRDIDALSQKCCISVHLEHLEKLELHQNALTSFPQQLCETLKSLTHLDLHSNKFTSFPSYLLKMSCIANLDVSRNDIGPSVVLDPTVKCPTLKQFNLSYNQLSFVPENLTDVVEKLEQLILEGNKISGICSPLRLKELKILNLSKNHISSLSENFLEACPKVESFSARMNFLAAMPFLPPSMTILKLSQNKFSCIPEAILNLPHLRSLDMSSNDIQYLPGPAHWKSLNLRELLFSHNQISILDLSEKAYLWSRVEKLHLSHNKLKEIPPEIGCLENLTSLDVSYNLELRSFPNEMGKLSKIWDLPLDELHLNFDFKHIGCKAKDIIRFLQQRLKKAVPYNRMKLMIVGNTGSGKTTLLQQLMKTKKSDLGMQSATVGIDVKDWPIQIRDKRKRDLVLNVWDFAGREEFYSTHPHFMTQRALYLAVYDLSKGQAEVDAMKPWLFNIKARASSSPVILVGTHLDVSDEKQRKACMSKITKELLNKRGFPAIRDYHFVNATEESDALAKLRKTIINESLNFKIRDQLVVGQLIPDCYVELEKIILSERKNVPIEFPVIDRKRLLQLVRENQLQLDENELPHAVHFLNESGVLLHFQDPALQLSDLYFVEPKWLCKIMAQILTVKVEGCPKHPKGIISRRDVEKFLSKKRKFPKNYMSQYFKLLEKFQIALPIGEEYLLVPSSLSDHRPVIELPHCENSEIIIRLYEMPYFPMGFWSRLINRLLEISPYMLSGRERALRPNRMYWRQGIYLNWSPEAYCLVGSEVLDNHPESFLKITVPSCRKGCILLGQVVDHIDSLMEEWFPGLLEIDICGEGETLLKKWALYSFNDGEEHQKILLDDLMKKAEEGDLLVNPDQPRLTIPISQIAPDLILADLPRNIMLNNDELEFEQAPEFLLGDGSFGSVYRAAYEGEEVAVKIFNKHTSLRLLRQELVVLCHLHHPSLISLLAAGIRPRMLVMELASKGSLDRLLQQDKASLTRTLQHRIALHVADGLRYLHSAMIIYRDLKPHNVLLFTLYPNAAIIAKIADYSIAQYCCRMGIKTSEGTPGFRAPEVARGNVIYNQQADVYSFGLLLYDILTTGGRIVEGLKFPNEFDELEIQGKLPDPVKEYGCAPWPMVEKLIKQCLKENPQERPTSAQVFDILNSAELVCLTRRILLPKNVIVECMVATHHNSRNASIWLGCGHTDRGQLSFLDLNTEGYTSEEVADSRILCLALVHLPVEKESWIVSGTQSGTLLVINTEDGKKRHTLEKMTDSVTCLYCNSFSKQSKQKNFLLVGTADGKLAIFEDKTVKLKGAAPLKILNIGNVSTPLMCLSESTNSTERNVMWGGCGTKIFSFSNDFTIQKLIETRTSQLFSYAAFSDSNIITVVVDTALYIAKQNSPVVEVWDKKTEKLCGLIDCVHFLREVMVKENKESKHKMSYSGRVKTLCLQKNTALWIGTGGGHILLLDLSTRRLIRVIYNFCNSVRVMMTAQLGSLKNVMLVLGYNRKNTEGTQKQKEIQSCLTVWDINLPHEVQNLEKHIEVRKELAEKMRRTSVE

[20] = molecular target: Dual specificity mitogen-activated protein kinase kinase 2 (Homo sapiens) (UniProt P36507); settings: Compound concentration 1000.0 nM
[21] = molecular target: Serine/threonine-protein kinase 38-like (Homo sapiens) (UniProt Q9Y2H1); settings: Compound concentration 1000.0 nM
[22] = molecular target: Serine/threonine-protein kinase Nek4 (Homo sapiens) (UniProt P51957); settings: Compound concentration 1000.0 nM
Serine/threonine-protein kinase Nek4 (Homo sapiens), sequence (P51957 whole entry, looked up): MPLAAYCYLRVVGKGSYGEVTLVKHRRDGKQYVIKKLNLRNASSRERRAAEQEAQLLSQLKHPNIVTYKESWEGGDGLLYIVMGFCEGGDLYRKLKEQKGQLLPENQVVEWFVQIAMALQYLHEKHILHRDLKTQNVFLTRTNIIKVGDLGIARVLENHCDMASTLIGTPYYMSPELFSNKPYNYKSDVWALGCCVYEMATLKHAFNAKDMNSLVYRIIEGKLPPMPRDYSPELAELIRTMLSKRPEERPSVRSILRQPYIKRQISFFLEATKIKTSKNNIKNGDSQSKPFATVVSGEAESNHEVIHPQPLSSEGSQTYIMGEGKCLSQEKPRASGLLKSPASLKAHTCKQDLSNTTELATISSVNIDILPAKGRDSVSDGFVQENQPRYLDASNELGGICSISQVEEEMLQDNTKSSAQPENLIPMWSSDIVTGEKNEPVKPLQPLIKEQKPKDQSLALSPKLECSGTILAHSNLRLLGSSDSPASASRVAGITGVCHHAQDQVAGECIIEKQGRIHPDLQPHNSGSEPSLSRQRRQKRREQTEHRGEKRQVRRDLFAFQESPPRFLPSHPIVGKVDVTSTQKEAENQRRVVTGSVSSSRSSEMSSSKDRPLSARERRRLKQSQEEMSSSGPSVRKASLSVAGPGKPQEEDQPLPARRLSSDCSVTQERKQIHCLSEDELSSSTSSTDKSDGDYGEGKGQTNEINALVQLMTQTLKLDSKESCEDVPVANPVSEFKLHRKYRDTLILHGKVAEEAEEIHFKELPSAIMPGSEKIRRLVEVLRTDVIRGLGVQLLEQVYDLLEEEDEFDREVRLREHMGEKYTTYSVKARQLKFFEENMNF

[23] = molecular target: Cyclin-dependent kinase 14 (Homo sapiens) (UniProt O94921); settings: Compound concentration 1000.0 nM
[24] = molecular target: Phosphorylase b kinase regulatory subunit alpha, liver isoform (Homo sapiens) (UniProt P46019); settings: Compound concentration 1000.0 nM
[25] = system: Phosphatidylinositol 4,5-bisphosphate 3-kinase catalytic subunit alpha isoform (Homo sapiens), P42336 [Q546K]; settings: Compound concentration 1000.0 nM
[26] = molecular target: Phosphatidylinositol 4,5-bisphosphate 3-kinase catalytic subunit beta isoform (Homo sapiens) (UniProt P42338); settings: Compound concentration 1000.0 nM
[27] = molecular target: Phosphatidylinositol 4-phosphate 5-kinase type-1 alpha (Homo sapiens) (UniProt Q99755); settings: Compound concentration 1000.0 nM
[28] = molecular target: Serine/threonine-protein kinase D1 (Homo sapiens) (UniProt Q15139); settings: Compound concentration 1000.0 nM
[29] = molecular target: RAF proto-oncogene serine/threonine-protein kinase (Homo sapiens) (UniProt P04049); settings: Compound concentration 1000.0 nM
[30] = system: Proto-oncogene tyrosine-protein kinase receptor Ret (Homo sapiens), P07949 [M918T]; settings: Compound concentration 1000.0 nM
[31] = system: Proto-oncogene tyrosine-protein kinase receptor Ret (Homo sapiens), P07949 [V804M]; settings: Compound concentration 1000.0 nM
[32] = molecular target: Receptor-interacting serine/threonine-protein kinase 1 (Homo sapiens) (UniProt Q13546); settings: Compound concentration 1000.0 nM
[33] = molecular target: Ribosomal protein S6 kinase alpha-4 (Homo sapiens) (UniProt O75676); settings: Compound concentration 1000.0 nM
[34] = molecular target: Ribosomal protein S6 kinase alpha-2 (Homo sapiens) (UniProt Q15349); settings: Compound concentration 1000.0 nM
[35] = molecular target: Ribosomal protein S6 kinase alpha-6 (Homo sapiens) (UniProt Q9UK32); settings: Compound concentration 1000.0 nM
[36] = molecular target: STE20-like serine/threonine-protein kinase (Homo sapiens) (UniProt Q9H2G2); settings: Compound concentration 1000.0 nM
[37] = molecular target: Tyrosine-protein kinase receptor Tie-1 (Homo sapiens) (UniProt P35590); settings: Compound concentration 1000.0 nM
[38] = molecular target: Serine/threonine-protein kinase WNK3 (Homo sapiens) (UniProt Q9BYP7); settings: Compound concentration 1000.0 nM
[39] = molecular target: Mu-type opioid receptor (Homo sapiens) (UniProt P35372); settings: Compound concentration 10.0 uM
[40] = molecular target: GABA-A receptor; anion channel (Rattus norvegicus) (UniProt O09028+P15431+P18506+P18508+P19969+P20236+P23574+P23576+P28471+P28473+P30191+P62813+P63079+P63138+Q91ZM7+Q9ES14); settings: Compound concentration 10.0 uM
[41] = molecular target: Histamine H1 receptor (Homo sapiens) (UniProt P35367); settings: Compound concentration 10.0 uM
Histamine H1 receptor (Homo sapiens), sequence (P35367 whole entry): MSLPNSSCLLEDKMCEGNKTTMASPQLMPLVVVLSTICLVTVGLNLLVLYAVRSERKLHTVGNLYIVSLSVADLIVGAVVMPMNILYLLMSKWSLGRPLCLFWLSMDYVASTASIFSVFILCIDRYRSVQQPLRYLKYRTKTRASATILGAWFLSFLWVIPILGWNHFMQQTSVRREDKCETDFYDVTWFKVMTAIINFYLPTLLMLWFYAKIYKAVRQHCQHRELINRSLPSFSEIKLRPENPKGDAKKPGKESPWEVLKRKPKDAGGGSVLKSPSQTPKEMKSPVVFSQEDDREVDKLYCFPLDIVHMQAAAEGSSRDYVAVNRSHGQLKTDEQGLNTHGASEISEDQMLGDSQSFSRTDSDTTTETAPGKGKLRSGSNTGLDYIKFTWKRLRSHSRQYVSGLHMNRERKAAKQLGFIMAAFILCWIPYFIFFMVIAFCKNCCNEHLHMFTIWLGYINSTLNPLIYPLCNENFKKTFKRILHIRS

[42] = molecular target: Muscarinic acetylcholine receptor M5 (Homo sapiens) (UniProt P08912); settings: Compound concentration 10.0 uM
Rattus norvegicus = species: Rattus norvegicus; settings: Compound concentration 10.0 uM

`CO[C@@H](C)c1c(Nc2ccc([C@@H](N(C)C(=O)C3CCS(=O)(=O)CC3)C(F)(F)F)cc2)cnc2cc(Cl)nn12` [NVS-MALT1-C] was tested, and the residual activity [1] was 100%, the residual activity [2] was 89% and the residual activity [3] was 56%. It also gave a residual activity [4] of 100%, a residual activity [5] of 99% and a residual activity [6] of 41%. It also gave a residual activity [7] of 100%, a residual activity [8] of 100% and a residual activity [9] of 72%. For the same compound, the residual activity [10] was 70%, the residual activity [11] was 89% and the residual activity [12] was 84%. For the same compound, the residual activity [13] was 59%, the residual activity [14] was 87% and the residual activity [15] was 94%. The residual activity [16] was 100%, the residual activity [17] was 95% and the residual activity [18] was 88%. It also gave a residual activity [19] of 100%, a residual activity [20] of 97% and a residual activity [21] of 75%. It also gave a residual activity [22] of 90%, a residual activity [23] of 99% and a residual activity [24] of 44%. It also gave a residual activity [25] of 100%, a residual activity [26] of 72% and a residual activity [27] of 89%. It also gave a residual activity [28] of 100%, a residual activity [29] of 100% and a residual activity [30] of 85%. The residual activity [31] was 87%, the residual activity [32] was 84% and the residual activity [33] was 94%. The residual activity [34] was 100%, the residual activity [35] was 100% and the residual activity [36] was 83%. It also gave a residual activity [37] of 96%, a residual activity [38] of 84% and an inhibition [39] of 6.39%. The inhibition [40] was 19.2%, the inhibition [41] was -9.88% and the inhibition [42] was 7.57%. The inhibition (Rattus norvegicus) was 5.14%.
For `CO[C@@H](C)c1c(Nc2ccc([C@H](N(C)C(=O)C3CCS(=O)(=O)CC3)C(F)(F)F)cc2)cnc2cc(Cl)nn12` [NVS-MALT1], the residual activity [1] was 100%, the residual activity [2] was 89% and the residual activity [3] was 87%. It also gave a residual activity [4] of 100%, a residual activity [5] of 100% and a residual activity [6] of 86%. For the same compound, the residual activity [7] was 99%, the residual activity [8] was 100% and the residual activity [9] was 80%. For the same compound, the residual activity [10] was 59%, the residual activity [11] was 88% and the residual activity [12] was 86%. It also gave a residual activity [13] of 85%, a residual activity [14] of 90% and a residual activity [15] of 100%. For the same compound, the residual activity [16] was 100%, the residual activity [17] was 87% and the residual activity [18] was 100%. For the same compound, the residual activity [19] was 100%, the residual activity [20] was 96% and the residual activity [21] was 75%. It also gave a residual activity [22] of 90%, a residual activity [23] of 100% and a residual activity [24] of 96%. The residual activity [25] was 100%, the residual activity [26] was 65% and the residual activity [27] was 100%. It also gave a residual activity [28] of 100%, a residual activity [29] of 97% and a residual activity [30] of 95%. It also gave a residual activity [31] of 94%, a residual activity [32] of 91% and a residual activity [33] of 86%. The residual activity [34] was 100%, the residual activity [35] was 100% and the residual activity [36] was 81%. For the same compound, the residual activity [37] was 92%, the residual activity [38] was 95% and the inhibition [39] was 6.13%. For the same compound, the inhibition [40] was 27.9%, the inhibition [41] was 10.2% and the inhibition [42] was 14.6%. For the same compound, the inhibition (Rattus norvegicus) was 11.6%.
